From patent US10233173B2, “Substituted 1,2,3-triazoles as NR2B-selective NMDA modulators” (JANSSEN PHARMACEUTICA NV, priority 2016, dated 2019)

Target: human GluN1/GluN2B NMDA receptors (Homo sapiens, UniProt Q05586+Q13224)
Test: Cell-based calcium flux (FLIPR) assay on cloned human NR1/NR2B ion channels expressed in mammalian cells
Conditions: standard assay; human GluN1/GluN2B, calcium flux (FLIPR), glutamate ~EC80
Method in brief: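 Calcium influx followed by FLIPR fluorescence after 5 min compound exposure and a further 5 min co-agonist challenge: 10 μM glycine with glutamate at ~EC80 (standard) or EC40 (HTS).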

human GluN1/GluN2B NMDA receptors, sequence (Q13224 27-1484, other chains not shown): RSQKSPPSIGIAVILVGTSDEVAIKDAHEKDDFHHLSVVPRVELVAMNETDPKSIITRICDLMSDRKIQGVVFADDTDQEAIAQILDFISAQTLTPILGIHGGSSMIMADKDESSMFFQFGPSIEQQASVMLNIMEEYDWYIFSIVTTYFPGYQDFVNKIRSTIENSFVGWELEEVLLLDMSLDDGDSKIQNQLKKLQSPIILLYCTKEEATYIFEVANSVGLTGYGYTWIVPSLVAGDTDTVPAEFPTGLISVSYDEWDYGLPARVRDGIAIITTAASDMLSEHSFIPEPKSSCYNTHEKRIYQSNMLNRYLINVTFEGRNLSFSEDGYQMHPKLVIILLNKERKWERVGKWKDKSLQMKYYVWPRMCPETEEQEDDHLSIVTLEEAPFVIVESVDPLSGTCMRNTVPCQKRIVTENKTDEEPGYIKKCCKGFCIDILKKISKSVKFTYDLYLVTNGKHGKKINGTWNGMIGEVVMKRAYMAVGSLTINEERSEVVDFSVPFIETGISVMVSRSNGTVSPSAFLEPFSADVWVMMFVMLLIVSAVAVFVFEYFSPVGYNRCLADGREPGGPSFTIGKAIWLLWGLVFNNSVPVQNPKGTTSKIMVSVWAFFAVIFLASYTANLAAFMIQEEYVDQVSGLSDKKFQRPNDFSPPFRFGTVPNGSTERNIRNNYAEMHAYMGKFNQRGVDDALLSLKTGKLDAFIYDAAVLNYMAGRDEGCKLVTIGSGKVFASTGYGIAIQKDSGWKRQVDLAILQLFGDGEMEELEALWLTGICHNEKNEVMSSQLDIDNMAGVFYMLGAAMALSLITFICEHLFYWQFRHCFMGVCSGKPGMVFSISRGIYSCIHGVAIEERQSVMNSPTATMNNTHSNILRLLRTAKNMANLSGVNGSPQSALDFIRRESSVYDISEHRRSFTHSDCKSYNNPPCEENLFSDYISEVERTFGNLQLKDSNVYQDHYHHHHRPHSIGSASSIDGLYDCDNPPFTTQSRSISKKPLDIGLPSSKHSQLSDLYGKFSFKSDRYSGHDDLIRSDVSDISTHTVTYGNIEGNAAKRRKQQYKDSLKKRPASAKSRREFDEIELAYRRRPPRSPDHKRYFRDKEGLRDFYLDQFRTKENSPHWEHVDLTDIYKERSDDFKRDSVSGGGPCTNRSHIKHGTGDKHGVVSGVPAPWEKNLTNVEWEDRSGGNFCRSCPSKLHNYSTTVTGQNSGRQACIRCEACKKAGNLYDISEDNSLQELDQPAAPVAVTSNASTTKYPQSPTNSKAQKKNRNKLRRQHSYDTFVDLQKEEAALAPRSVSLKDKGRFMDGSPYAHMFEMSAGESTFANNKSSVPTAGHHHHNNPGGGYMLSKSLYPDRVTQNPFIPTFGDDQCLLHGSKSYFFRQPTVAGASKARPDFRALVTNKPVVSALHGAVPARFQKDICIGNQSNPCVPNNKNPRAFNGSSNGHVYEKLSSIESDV

| Structure (SMILES) | IC50 [µM] |
| --- | --- |
| Cc1cnc(OCc2cn(-c3ccc4c(c3)OC(F)(F)O4)nn2)nc1C [Example 359, 2-[[1-(2,2-Difluoro-1,3-benzodioxol-5-yl)triazol-4-yl]methoxy]-4,5-dimethyl-pyrimidine] | 0.009 |
| Cc1cc(C)cc(-n2cc(COc3ncccn3)nn2)c1 [Example 360, 2-[[1-(3,5-Dimethylphenyl)triazol-4-yl]methoxy]pyrimidine] | 0.791 |
| Cc1cc(C)cc(-n2cc(COc3ncc(F)cn3)nn2)c1 [Example 361, 2-[[1-(3,5-Dimethylphenyl)triazol-4-yl]methoxy]-5-fluoro-pyrimidine] | 0.587 |
| COc1cnc(OCc2cn(-c3cc(C)cc(C)c3)nn2)nc1 [Example 362, 2-[[1-(3,5-Dimethylphenyl)triazol-4-yl]methoxy]-5-methoxy-pyrimidine] | 0.032 |
| Cc1cc(C)cc(-n2cc(COc3ncc(Cl)cn3)nn2)c1 [Example 363, 5-Chloro-2-[[1-(3,5-dimethylphenyl)triazol-4-yl]methoxy]pyrimidine] | 0.118 |
| Cc1cnc(OCc2cn(-c3cc(C)cc(C)c3)nn2)nc1 [Example 364, 2-[[1-(3,5-Dimethylphenyl)triazol-4-yl]methoxy]-5-methyl-pyrimidine] | 0.027 |
| CCc1cnc(OCc2cn(-c3cc(C)cc(C)c3)nn2)nc1 [Example 365, 2-[[1-(3,5-Dimethylphenyl)triazol-4-yl]methoxy]-5-ethyl-pyrimidine] | 0.022 |
| Cc1cnc(OCc2cn(-c3ccc4c(c3)CCC4)nn2)nc1 [Example 366, 2-[(1-Indan-5-yltriazol-4-yl)methoxy]-5-methyl-pyrimidine] | 0.02 |
| Clc1cnc(OCc2cn(-c3ccc4c(c3)CCC4)nn2)nc1 [Example 367, 5-Chloro-2-[(1-indan-5-yltriazol-4-yl)methoxy]pyrimidine] | 0.053 |
| COCc1ccnc(OCc2cn(-c3ccc4c(c3)CCC4)nn2)n1 [Example 368, 2-[(1-Indan-5-yltriazol-4-yl)methoxy]-4-(methoxymethyl)pyrimidine] | 0.114 |
| CC(C)(O)c1cnc(OCc2cn(-c3ccc4c(c3)CCC4)nn2)nc1 [Example 369, 2-[2-[(1-Indan-5-yltriazol-4-yl)methoxy]pyrimidin-5-yl]propan-2-ol] | 0.175 |
| FC(F)c1ccnc(OCc2cn(-c3ccc4c(c3)CCC4)nn2)n1 [Example 370, 4-(Difluoromethyl)-2-[(1-indan-5-yltriazol-4-yl)methoxy]pyrimidine] | 0.397 |
| Cc1nc(OCc2cn(-c3ccc4c(c3)CCC4)nn2)ncc1Cl [Example 371, 5-Chloro-2-[(1-indan-5-yltriazol-4-yl)methoxy]-4-methyl-pyrimidine] | 0.039 |
| Cc1cnc(OCc2cn(-c3ccc(Cl)c(OC(F)F)c3)nn2)nc1C [Example 372, 2-[[1-[4-Chloro-3-(difluoromethoxy)phenyl]triazol-4-yl]methoxy]-4,5-dimethyl-pyrimidine] | 0.008 |
| CC(C)c1cnc(OCc2cn(-c3ccc(Cl)c(OC(F)F)c3)nn2)nc1 [Example 373, 2-[[1-[4-Chloro-3-(difluoromethoxy)phenyl]triazol-4-yl]methoxy]-5-isopropyl-pyrimidine] | 0.01 |
| C[C@@H](Oc1ncccn1)c1cn(-c2ccc(Cl)c(OC(F)F)c2)nn1 [Example 374, 2-[(1R)-1-[1-[4-Chloro-3-(difluoromethoxy)phenyl]triazol-4-yl]ethoxy]pyrimidine] | 0.011 |

| Structure (SMILES) | IC50 [µM] |
| --- | --- |
| C[C@@H](Oc1ncc(Cl)cn1)c1cn(-c2ccc(Cl)c(OC(F)F)c2)nn1 [Example 375, 5-Chloro-2-[(1R)-1-[1-[4-chloro-3-(difluoromethoxy)phenyl]triazol-4-yl]ethoxy]pyrimidine] | 0.01 |
| Cc1cnc(O[C@H](C)c2cn(-c3ccc(Cl)c(OC(F)F)c3)nn2)nc1 [Example 376, 2-[(1R)-1-[1-[4-Chloro-3-(difluoromethoxy)phenyl]triazol-4-yl]ethoxy]-5-methyl-pyrimidine] | 0.011 |
| COc1cnc(O[C@H](C)c2cn(-c3ccc(Cl)c(OC(F)F)c3)nn2)nc1 [Example 377, 2-[(1R)-1-[1-[4-Chloro-3-(difluoromethoxy)phenyl]triazol-4-yl]ethoxy]-5-methoxy-pyrimidine] | 0.01 |
| C[C@H](Oc1ncccn1)c1cn(-c2ccc(Cl)c(OC(F)F)c2)nn1 [Example 378, 2-[(1S)-1-[1-[4-Chloro-3-(difluoromethoxy)phenyl]triazol-4-yl]ethoxy]pyrimidine] | 2.3 |
| C[C@H](Oc1ncc(Cl)cn1)c1cn(-c2ccc(Cl)c(OC(F)F)c2)nn1 [Example 379, 5-Chloro-2-[(1S)-1-[1-[4-chloro-3-(difluoromethoxy)phenyl]triazol-4-yl]ethoxy]pyrimidine] | 0.575 |
| Cc1cnc(O[C@@H](C)c2cn(-c3ccc(Cl)c(OC(F)F)c3)nn2)nc1 [Example 380, 2-[(1S)-1-[1-[4-Chloro-3-(difluoromethoxy)phenyl]triazol-4-yl]ethoxy]-5-methyl-pyrimidine] | 0.237 |
| COc1cnc(O[C@@H](C)c2cn(-c3ccc(Cl)c(OC(F)F)c3)nn2)nc1 [Example 381, 2-[(1S)-1-[1-[4-Chloro-3-(difluoromethoxy)phenyl]triazol-4-yl]ethoxy]-5-methoxy-pyrimidine] | 0.196 |
| Nc1ccnc(OCc2cn(-c3ccc(Cl)c(OC(F)F)c3)nn2)n1 [Example 382, 2-((1-(4-chloro-3-(difluoromethoxy)phenyl)-1H-1,2,3-triazol-4-yl)methoxy)pyrimidin-4-amine] | 0.021 |
| OCc1ccnc(OCc2cn(-c3ccc(Cl)c(OC(F)F)c3)nn2)n1 [Example 383, [2-[[1-[4-Chloro-3-(difluoromethoxy)phenyl]triazol-4-yl]methoxy]pyrimidin-4-yl]methanol] | 0.008 |
| COCc1ccnc(OCc2cn(-c3ccc(Cl)c(OC(F)F)c3)nn2)n1 [Example 384, 2-[[1-[4-Chloro-3-(difluoromethoxy)phenyl]triazol-4-yl]methoxy]-4-(methoxymethyl)pyrimidine] | 0.018 |
| CC(C)(O)c1cnc(OCc2cn(-c3ccc(Cl)c(OC(F)F)c3)nn2)nc1 [Example 385, 2-[2-[[1-[4-Chloro-3-(difluoromethoxy)phenyl]triazol-4-yl]methoxy]pyrimidin-5-yl]propan-2-ol] | 0.028 |
| CC(C)Oc1ccnc(OCc2cn(-c3ccc(Cl)c(OC(F)F)c3)nn2)n1 [Example 386, 2-((1-(4-Chloro-3-(difluoromethoxy)phenyl)-1H-1,2,3-triazol-4-yl)methoxy)-4-isopropoxypyrimidine] | 0.504 |
| COC(=O)c1ccnc(OCc2cn(-c3ccc(Cl)c(OC(F)F)c3)nn2)n1 [Example 387, Methyl 2-((1-(4-chloro-3-(difluoromethoxy)phenyl)-1H-1,2,3-triazol-4-yl)methoxy)pyrimidine-4-carboxylate] | 0.068 |
| Fc1cnc(OCc2cn(-c3ccc(Cl)c(OC(F)F)c3)nn2)nc1NCC(F)F [Example 388, 2-[[1-[4-Chloro-3-(difluoromethoxy)phenyl]triazol-4-yl]methoxy]-N-(2,2-difluoroethyl)-5-fluoro-pyrimidin-4-amine] | 0.842 |
| CNc1nc(OCc2cn(-c3ccc(Cl)c(OC(F)F)c3)nn2)ncc1F [Example 389, 2-[[1-[4-Chloro-3-(difluoromethoxy)phenyl]triazol-4-yl]methoxy]-5-fluoro-N-methyl-pyrimidin-4-amine] | 0.033 |
